Test results as given in patent publication US10071133B2, “Method for destroying exosomes, kit for destroying exosomes, and method for isolating exosomes derived from normal cells” (priority 2015, dated 2018).
Ends that are not written are not given here.

Assays:
[1] = tested on: exosome fraction B derived from human breast cancer cells (MDA-MB-231-luc-D3H2LN); assay: Extraction of microRNA (miR-21) from exosomes derived from human breast cancer cells, real-time PCR; format: biochemical; settings: 100 μM peptide, 1×10^11 particles/mL exosomes, 0.4 U/μL RNase inhibitor, 37° C., 24 hours; without peptide 8×10^−14M
Procedure: (§1) A cell suspension of cell line MDA-MB-231-luc-D3H2LN derived from human breast cancer (=MM231-luc-D3H2LN, provided by the National Cancer Center Research Institute) was seeded in a dish containing RPMI 1640 medium (manufactured by Thermo Fisher Scientific Inc.) containing 10% fetal bovine serum. Subsequently, the cell line was grown at 37° C. under the condition that CO2 concentration was set to 5 volume % using a CO2 incubator, and then the medium was replaced with Advanced RPMI 1640 medium (manufactured by Thermo Fisher Scientific Inc.), followed by culturing for 48 hours, and therefore the culture solution containing exosomes was obtained. This culture solution was centrifuged at 2,000 G for 10 minutes to remove the precipitate, followed by centrifugation at 110,000 G for 70 minutes to precipitate the exosomes, and therefore an exosome fraction B was recovered. The recovered exosome fraction B was suspended in a phosphate buffered saline (PBS) and then stored at 4° C. Storage samples were lightly suspended with a vortex mixer (vibration mixer) before use.
(§2) MicroRNA (miR-21 or miR-16) in the reaction solution was subjected to reverse transcription PCR using reverse transcription primers (manufactured by Thermo Fisher Scientific Inc., Taqman microRNA Assays, RT primers, and hsa-mir-21 or hsa-mir-16) and a reverse transcriptase (manufactured by Thermo Fisher Scientific Inc., Taqman microRNA RT kit).
(§3) The reverse transcription PCR solution obtained by the above described method was processed and by comparing the number of cycles on a calibration curve of microRNA using Taqman Assay primer (manufactured by Thermo Fisher Scientific Inc., Taqman microRNA Assays, Taqman Assay primer, and hsa-mir-21 or hsa-mir-16) and Real-Time PCR Master Mixes (manufactured by Thermo Fisher Scientific Inc., TaqMan Universal PCR Master Mix II, w/UNG) with StepOnePlus Real-Time PCR System, MiR-21 or miR-16 was quantified. The calibration curve of microRNA was created using synthetic miR-21 (manufactured by Sigma-Aldrich Co. LLC.) or synthetic miR-16 (manufactured by Sigma-Aldrich Co. LLC.).
(§4) 10 μL of the exosome fraction was prepared such that PBS contains 1×10^11 particles/mL of the exosome fraction B derived from human breast cancer cells, various antimicrobial peptides shown in the following Table 2 adjusted to 100 μM, and 0.4 U/μL of RNase inhibitor (manufactured by Toyobo Co., Ltd.), followed by incubation by being left to stand at 37° C. for 24 hours.
MicroRNA eluted into the solution was purified and recovered from the incubated solution of Example 10 above and Comparative Example 6 above by the following method.
First, 160 μL of PBS was added to the reaction solution, and then the solution was added to a centrifugal filter (manufactured by Millipore Corporation, Amicon Ultra 0.5 mL, 100K filter) and centrifuged at 14,000 G for 2 minutes. Subsequently, 100 μL of the centrifuged filtrate was recovered and introduced into a 1.5 mL tube. Next, 350 μL of RLT buffer (manufactured by QIAGEN, attached with RNeasy mini kit) and 675 μL of ethanol were added and mixed in the 1.5 mL tube. The obtained mixture was separated into two parts, and each of the separates was added onto a spin column (manufactured by QIAGEN, attached with RNeasy mini kit) followed by centrifugation at 8,000 G for 15 seconds, and the entire amount of the mixture was passed through the spin column. Thereafter, 500 μL of RPE buffer (manufactured by QIAGEN, attached with RNeasy mini kit) was added thereto and centrifuged at 8,000 G for 15 seconds. Furthermore, 500 μL of the RPE buffer was added to the spin column once more and centrifuged at 8,000 G for 15 seconds. Thereafter, the spin column was centrifuged at 14,000 G for 1 minute to remove the residual RPE buffer. Next, 30 μL of RNase free water (manufactured by QIAGEN, attached with RNeasy mini kit) was added to the spin column, left for 1 minute, and then centrifuged at 14,000 G for 1 minute, and the eluate obtained thereby was recovered. […]

[2] = tested on: exosome fraction B derived from human breast cancer cells versus exosome fraction derived from human mammary gland cells (MCF-10A, normal cells); assay: Selectivity: miR-16 ratio, breast cancer exosomes versus mammary gland normal cell exosomes (Formula 1); format: biochemical; settings: for mir-16 ratio: Formula 1, cancer/normal (MCF-10A), 100 μM peptide, 37° C., 24 hours; for Selectivity: from miR-16 ratio versus Comparative Example 8, breast cancer vs MCF-10A exosomes
Procedure: as §1
A cell suspension of cell line MCF 10A derived from human mammary epithelial cells (provided by the National Cancer Center Research Institute) was seeded in a dish containing Mammary Epithelium Cell Basal Medium (manufactured by Lonza). Subsequently, the cell line was grown at 37° C. under the condition that CO2 concentration was set to 5 volume % using a CO2 incubator, and then the medium was replaced with a fresh medium, followed by culturing for 48 hours, and the culture solution containing exosomes was obtained. This culture solution was centrifuged at 2,000 G for 10 minutes to remove the precipitate, followed by centrifugation at 110,000 G for 70 minutes to precipitate the exosomes, and an exosome fraction was recovered. The recovered exosome fraction was suspended in a phosphate buffered saline (PBS) and then stored at 4° C. Storage samples were lightly suspended with a vortex mixer (vibration mixer) before use.
as §2, §3
as §4, with “Table 4” for “Table 2”
Thereafter, the eluted MicroRNA (miR-16) was purified and recovered from the incubated solution by the same method as the above described method for extraction from the incubated solution of Examples 10 and 11 above and Comparative Examples 6 and 7 above. […]

Compound	Destructive activity (concentration of microRNA miR-21 in eluate) [1]	mir-16 ratio [2]	Selectivity [2]
N=C(N)N [4M guanidine, guanidine, reference compound]	D (the concentration of microRNA is less than 10×10^−14M)		
Short α-helical peptides (2) (GIIKKIIKKIIKKIIKKI-NH2)	B (the concentration of microRNA is 10×10^−14M to 50×10^−14M)		
Pardaxin 4	B (the concentration of microRNA is 10×10^−14M to 50×10^−14M)		
Magainin I (GIGKFLHSAGKFGKAFVGEIMKS) [Megainin I]	B (the concentration of microRNA is 10×10^−14M to 50×10^−14M)		
CC[C@H](C)[C@H](NC(=O)CN)C(=O)NCC(=O)N[C@@H](C)C(=O)N[C@H](C(=O)N[C@@H](CC(C)C)C(=O)N[C@@H](CCCCN)C(=O)N[C@H](C(=O)N[C@@H](CC(C)C)C(=O)N[C@H](C(=O)N[C@H](C(=O)NCC(=O)N[C@@H](CC(C)C)C(=O)N1CCC[C@H]1C(=O)N[C@@H](C)C(=O)N[C@@H](CC(C)C)C(=O)N[C@H](C(=O)N[C@@H](CO)C(=O)N[C@@H](Cc1c[nH]c2ccccc12)C(=O)N[C@H](C(=O)N[C@@H](CCCCN)C(=O)N[C@@H](CCCNC(=N)N)C(=O)N[C@@H](CCCCN)C(=O)N[C@@H](CCCNC(=N)N)C(=O)N[C@@H](CCC(N)=O)C(=O)N[C@@H](CCC(N)=O)C(N)=O)[C@@H](C)CC)[C@@H](C)CC)[C@@H](C)O)[C@@H](C)O)C(C)C)C(C)C [Melittin]	A (the concentration of microRNA is 50×10^−14M or more)	42	B (evaluated as “B” in a case where the calculated miR-16 value was higher than the miR-16 ratio of Comparative Example 8)
Benzalkonium-Cl [1% Benzalkonium-Cl, reference compound]	D (the concentration of microRNA is less than 10×10^−14M)		
C-Reactive Protein (CRP) (174-185) (IYLGGPFSPNVL; UniProt P02741 192-203, looked up, fragment)	D (the concentration of microRNA is less than 10×10^−14M)		
Ascaphin-8	B (the concentration of microRNA is 10×10^−14M to 50×10^−14M)		
(HHPHG) 2 (HHPHGHHPHG) [(HHPHG)2]	B (the concentration of microRNA is 10×10^−14M to 50×10^−14M)		
NRC-07	B (the concentration of microRNA is 10×10^−14M to 50×10^−14M)		
Sesquin (KTCENLADTY)	D (the concentration of microRNA is less than 10×10^−14M)		
CCCCCCCCCCCCCCCCCCOP(=O)([O-])OCC[P+](C)(C)C [Octadecylphosphophosphoniumcholine, reference compound]	D (the concentration of microRNA is less than 10×10^−14M)		
CCCCCCCCCCCCCCCC[N+](C)(C)C.[Br-] [1% CTAB, CTAB, reference compound]	D (the concentration of microRNA is less than 10×10^−14M)		
NRC-03	B (the concentration of microRNA is 10×10^−14M to 50×10^−14M)		
(HHPHG) 4 [(HHPHG)4]	B (the concentration of microRNA is 10×10^−14M to 50×10^−14M)		
(HHPHG)3	B (the concentration of microRNA is 10×10^−14M to 50×10^−14M)		
Gageostatin C	D (the concentration of microRNA is less than 10×10^−14M)		
PTP7	D (the concentration of microRNA is less than 10×10^−14M)		

Compound	Destructive activity (concentration of microRNA miR-21 in eluate) [1]	mir-16 ratio [2]	Selectivity [2]
Hepcidin-20 (ICIFCCGCCHRSKCGMCCKT; ends and bridges not checked; cysteine pairing not given here; UniProt P81172 65-84, looked up)	D (the concentration of microRNA is less than 10×10^−14M)		
Caerin 1.1	A (the concentration of microRNA is 50×10^−14M or more)	27	B (evaluated as “B” in a case where the calculated miR-16 value was higher than the miR-16 ratio of Comparative Example 8)
Tuftsin	B (the concentration of microRNA is 10×10^−14M to 50×10^−14M)		
9R: amino acid sequence RRRRRNWMWC	B (the concentration of microRNA is 10×10^−14M to 50×10^−14M)		
NK-2	B (the concentration of microRNA is 10×10^−14M to 50×10^−14M)		
Buforin IIb	B (the concentration of microRNA is 10×10^−14M to 50×10^−14M)		
Maculatin 3.1	B (the concentration of microRNA is 10×10^−14M to 50×10^−14M)		
Dermcidin-1L (SSLLEKGLDGAKKAVGGLGKLGKDAVEDLESVGKGAVHDVKDVLDSVL)	D (the concentration of microRNA is less than 10×10^−14M)		
Epinecidin-1 (GFIFHIIKGLFHAGKMIHGLV-NH2)	B (the concentration of microRNA is 10×10^−14M to 50×10^−14M)		
Histatin-5	B (the concentration of microRNA is 10×10^−14M to 50×10^−14M)		
Macropin 1	B (the concentration of microRNA is 10×10^−14M to 50×10^−14M)		
Defensin HNP-1	B (the concentration of microRNA is 10×10^−14M to 50×10^−14M)		
Alloferon 1 (HGVSGHGQHGVHG)	D (the concentration of microRNA is less than 10×10^−14M)		
Dermaseptin	B (the concentration of microRNA is 10×10^−14M to 50×10^−14M)		
Cecropin B (KWKVFKKIEKMGRNIRNGIVKAGPAIAVLGEAKAL-NH2)	B (the concentration of microRNA is 10×10^−14M to 50×10^−14M)		
(Gln^53)-Connexin 37 (51-58) [(Gln^53)-Connexin 37(51-58)]	D (the concentration of microRNA is less than 10×10^−14M)		
TsAP-2	B (the concentration of microRNA is 10×10^−14M to 50×10^−14M)		
